IC50 data for 37 compounds are collected here from patent US20090023718A1 (Aton Pharma, Inc., priority 2003, published 2009).

One may read the IC50 as the point on the concentration scale where inhibition reaches its midpoint.

For the first assay, the target named is T1, histone deacetylase, subtype 1 (HDAC1) (Homo sapiens, UniProt Q13547).
T1 construct: Flag; made in house
T1 sequence (Q13547 whole entry): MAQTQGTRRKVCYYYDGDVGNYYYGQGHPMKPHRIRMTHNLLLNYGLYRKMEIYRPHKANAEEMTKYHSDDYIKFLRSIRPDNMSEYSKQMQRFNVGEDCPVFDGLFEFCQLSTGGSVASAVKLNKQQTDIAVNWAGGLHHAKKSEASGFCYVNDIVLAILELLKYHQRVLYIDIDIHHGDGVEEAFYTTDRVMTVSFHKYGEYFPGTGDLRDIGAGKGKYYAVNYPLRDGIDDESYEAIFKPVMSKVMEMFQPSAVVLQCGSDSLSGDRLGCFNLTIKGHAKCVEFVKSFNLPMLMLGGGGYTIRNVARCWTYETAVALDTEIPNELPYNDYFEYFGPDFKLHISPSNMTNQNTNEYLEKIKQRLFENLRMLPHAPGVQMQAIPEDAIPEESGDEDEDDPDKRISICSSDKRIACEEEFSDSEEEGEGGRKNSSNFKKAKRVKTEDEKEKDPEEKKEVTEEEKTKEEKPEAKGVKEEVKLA
Nature of the assay: HDAC1-Flag assay (in vitro fluorescent deacetylation assay). Format: biochemical. The conditions noted are these: Table 1, compounds of formula II; epitope-tagged human HDAC1 complex, substrate at Km; mean ± spread (N); read-out: HDAC Inhibition (IC50) nm. On the procedure: Novel compounds were tested for their ability to inhibit histone deacetylase, subtype 1 (HDAC1) using an in vitro deacetylation assay. The enzyme source for this assay was an epitope-tagged human HDAC1 complex immuno-purified from stably expressing mammalian cells. The substrate consisted of a commercial product containing an acetylated lysine side chain (BIOMOL Research Laboratories, Inc., Plymouth Meeting, Pa.). Upon deacetylation of the substrate by incubation with the purified HDAC1 complex, a fluorophore is produced that is directly proportional to the level of deacetylation.
On to `O=C(CCCCCC(=O)N(CC(=O)Nc1ccc2[nH]ncc2c1)CC(=O)Nc1ccc2[nH]ncc2c1)NO` [Compound 1, Heptanedioic acid bis-[(1H-indazol-5-ylcarbamoyl)-methyl]-amide hydroxyamide], for which the IC50 amounted to 1 nM.
On the same count and under the same terms, in the case of `O=C(CCCCCC(=O)N(CC(=O)Nc1ccc2ncccc2c1)CC(=O)Nc1ccc2ncccc2c1)NO` [Compound 2, Heptanedioic acid bis-(quinolin-ylcarbamoylmethyl)-amide hydroxyamide] it was 5.5 ± 0.7 nM.
Consider `O=C(CCCCCC(=O)N(CC(=O)Nc1ccc2c(c1)OCCO2)CC(=O)Nc1ccc2c(c1)OCCO2)NO` [Compound 5, Heptanedioic acid bis-[(2,3-dihydro-benzo[1,4]dioxin-6-ylcarbamoyl)-methyl]-amide hydroxyamide], for which the IC50 was found to be 19 nM.
As for `O=C(CCCCCC(=O)N(CC(=O)NCc1ccccc1)CC(=O)Nc1ccccc1)NO` [Compound 10, Heptanedioic acid (benzylcarbamoyl-methyl)-phenylcarbamoylmethyl-amide hydroxyamide], the IC50 turned out to be 27.5 ± 10.6 nM.
`O=C(CCCCCC(=O)N(CC(=O)NCCc1ccccc1)CC(=O)NCCc1ccccc1)NO` [Compound 12, Heptanedioic acid bis-(phenethylcarbamoyl-methyl)-amide hydroxyamide]: the IC50 came to 58 ± 9.8 nM.
Turning to `O=C(CCCCCC(=O)N(CC(=O)NCc1ccccc1)CC(=O)NCc1ccccc1)NO` [Compound 13, Heptanedioic acid bis-(benzylcarbamoyl-methyl)-amide hydroxyamide], the IC50 worked out at 61.5 ± 6.3 nM.
On the same count and under the same terms, the value for `O=C(CCCCCC(=O)N(CC(=O)NC1CCCCC1)CC(=O)NC1CCCCC1)NO` [Compound 14, Heptanedioic acid bis-cyclohexylcarbamoylmethyl-amide hydroxyamide] was 76 ± 14.1 nM; that for `O=C(CCCCCC(=O)N(CC(=O)Nc1ccc(OCc2ccccc2)cc1)CC(=O)Nc1ccc(OCc2ccccc2)cc1)NO` [Compound 16, Heptanedioic acid bis-[(4-benzyloxy-phenylcarbamoyl)-methyl]-amide hydroxyamide] was 91.5 ± 58.6 nM.
In the case of `O=C(CCCCCCC(=O)N(CC(=O)Nc1ccc2ncccc2c1)CC(=O)Nc1ccc2ncccc2c1)NO` [Compound 17, Octanedioic acid bis-(quinolin-6-ylcarbamoylmethyl)-amide hydroxyamide], the IC50 was 102 ± 33.2 nM.
For the compound `O=C(CCCCCC(=O)N(CC(=O)Nc1cccc(OCc2ccccc2)c1)CC(=O)Nc1cccc(OCc2ccccc2)c1)NO` [Compound 18, Heptanedioic acid bis-[(3-benzyloxy-phenylcarbamoyl)-methyl]-amide hydroxyamide], the IC50 worked out at 159 ± 159 nM.
Turning to `O=C(CCCCCCC(=O)N(CC(=O)NCCc1ccccc1)CC(=O)NCCc1ccccc1)NO` [Compound 19, Octanedioic acid bis-(phenethylcarbamoyl-methyl)-amide hydroxyamide], the IC50 was 231 ± 65.5 nM.
Turning to `O=C(CCCCCCC(=O)N(CC(=O)NCc1ccccc1)CC(=O)NCc1ccccc1)NO` [Compound 20, Octanedioic acid bis-(benzylcarbamoyl-methyl)-amide hydroxyamide], the IC50 was 247 ± 99.9 nM.
Consider `O=C(CCCCCCC(=O)N(CC(=O)NC1CCCCC1)CC(=O)NC1CCCCC1)NO` [Compound 21, Octanedioic acid bis-cyclohexylcarbamoylmethyl-amide hydroxyamide], for which the IC50 is 539 ± 97 nM.
As to `O=C(CCCCCCC(=O)N(CC(=O)Nc1ccc(OCc2ccccc2)cc1)CC(=O)Nc1ccc(OCc2ccccc2)cc1)NO` [Compound 22, Octanedioic acid bis-[(4-benzyloxy-phenylcarbamoyl)-methyl]-amide hydroxyamide], the IC50 stood at 848 ± 481 nM.
Still for that read-out and setting: in the case of `O=C(CCCCCCC(=O)N(CC(=O)Nc1cccc(OCc2ccccc2)c1)CC(=O)Nc1cccc(OCc2ccccc2)c1)NO` [Compound 23, Octanedioic acid bis-[(3-benzyloxy-phenylcarbamoyl)-methyl]-amide hydroxyamide] it was 861 ± 403 nM.
On to `O=C(CCCCCC(=O)N(CC(=O)Nc1ccccc1Oc1ccccc1)CC(=O)Nc1ccccc1Oc1ccccc1)NO` [Compound 26, Heptanedioic acid bis-[(2-phenoxy-phenylcarbamoyl)-methyl]-amide hydroxyamide], for which the IC50 worked out at 449 ± 40.3 nM.
`O=C(CCCCCC(=O)N(CC(=O)Nc1ccc(N2CCOCC2)cc1)CC(=O)Nc1ccc(N2CCOCC2)cc1)NO` [Compound 27, Heptanedioic acid bis-[(4-morpholin-4-yl-phenylcarbamoyl)-methyl]-amide hydroxyamide]: the IC50 was found to be 40 ± 8.4 nM.
With `Cc1ccc(S(=O)(=O)Nc2ccc(NC(=O)CN(CC(=O)Nc3ccc(NS(=O)(=O)c4ccc(C)cc4)cc3)C(=O)CCCCCC(=O)NO)cc2)cc1` [Compound 28, Heptanedioic acid bis{[4-(toluene-4-sulfonylamino)-phenylcarbamoyl]-methyl}-amide hydroxyamide], the half-inhibitory concentration (IC50) was determined as 33 ± 12.7 nM.
Still for that read-out and setting: in the case of `O=C(CCCCCC(=O)N(CC(=O)Nc1cccc(Oc2ccccc2)c1)CC(=O)Nc1cccc(Oc2ccccc2)c1)NO` [Compound 30, Heptanedioic acid bis-[(3-phenoxy-phenylcarbamoyl)-methyl]-amide hydroxyamide] it was 137 ± 18.3 nM; in that of `O=C(CCCCCC(=O)N(CC(=O)Nc1ccc2c(c1)Cc1ccccc1-2)CC(=O)Nc1ccc2c(c1)Cc1ccccc1-2)NO` [Compound 31, Heptanedioic acid bis-[(9H-fluoren-2-ylcarbamoyl)-methyl]-amide hydroxyamide], 59 ± 18.3 nM.
The same measure, in the same setting: the value for `CC(C)(C)c1ccc(NC(=O)CN(CC(=O)Nc2ccc(C(C)(C)C)cc2)C(=O)CCCCCC(=O)NO)cc1` [Compound 32] was 152 ± 48.7 nM; that for `O=C(CCCCCC(=O)N(CC(=O)NCCc1c[nH]c2ccccc12)CC(=O)NCCc1c[nH]c2ccccc12)NO` [Compound 33, Heptanedioic acid bis-{[2-(1H-indol-3-yl)-ethylcarbamoyl]-methyl}-amide hydroxyamide] was 39.5 ± 37.4 nM; that for `Cn1c(NC(=O)CN(CC(=O)Nc2nc3ccccc3n2C)C(=O)CCCCCC(=O)NO)nc2ccccc21` [Compound 38, Heptanedioic acid bis-[(1-methyl-1H-benzoimidazol-2-ylcarbamoyl)-methyl]-amide hydroxyamide] was 84 ± 8.4 nM.

The same assay, now with this note: Table 2, compounds of formula III; epitope-tagged human HDAC1 complex, substrate at Km; mean ± spread (N); read-out: HDAC Inhibition (IC50) nm.
“6-{Bis-[2-(3,4-dihydro-1H-isoquinolin-2-yl)-2-oxo-ethyl]-amino}-hexanoic acid hydroxyamide [Compound 46]”: the half-inhibitory concentration (IC50) is 153 ± 29.6 nM.
For `O=C(CCCCCN(CC(=O)NCCc1ccccc1)CC(=O)NCCc1ccccc1)NO` [Compound 42, 6-[Bis-(phenethylcarbamoyl-methyl)-amino]-hexanoic acid hydroxyamide], the IC50 was determined as 55.5 ± 0.7 nM.
Same read-out and setting: in the case of `O=C(CCCCCCCN(CC(=O)Nc1ccccc1)CC(=O)Nc1ccccc1)NO` [Compound 43, 8-(Bis-phenylcarbamoylmethyl-amino)-octanoic acid hydroxyamide] it was 86.5 ± 26.1 nM.
With `O=C(CCCCN(CC(=O)Nc1ccccc1)CC(=O)Nc1ccccc1)NO` [Compound 44, 5-(Bis-phenylcarbamoylmethyl-amino)-pentanoic acid hydroxyamide], the concentration for half-maximal inhibition (IC50) amounted to 133 ± 59.3 nM.
In the case of `O=C(CCCCCN(CC(=O)N1CCN(c2ccccc2)CC1)CC(=O)N1CCN(c2ccccc2)CC1)NO` [Compound 45, 6-{Bis-[2-oxo-2-(4-phenyl-piperazin-1-yl)-ethyl]-amino}-hexanoic acid hydroxyamide], the IC50 was found to be 140 ± 16.2 nM.
Same read-out and setting: the value for `O=C(CCCCCCCN(CC(=O)NCc1ccccc1)CC(=O)NCc1ccccc1)NO` [Compound 47, 8-[Bis-(benzylcarbamoyl-methyl)-amino]-octanoic acid hydroxyamide] was 181 ± 23.3 nM; that for `O=C(CCCCCN(CC(=O)NCc1ccccc1)CC(=O)NCc1ccccc1)NO` [Compound 48, 6-[Bis-(benzylcarbamoyl-methyl)-amino]-hexanoic acid hydroxyamide] was 187 ± 10.6 nM.
On to `O=C(CCCCCCCN(CC(=O)NCCc1ccccc1)CC(=O)NCCc1ccccc1)NO` [Compound 49, 8-[Bis-(phenethylcarbamoyl-methyl)-amino]-octanoic acid hydroxyamide], for which the IC50 was 191 ± 20.5 nM.
With `O=C(CCCCCN(CC(=O)NC1CCCCC1)CC(=O)NC1CCCCC1)NO` [Compound 50, 6-(Bis-cyclohexylcarbamoylmethyl-amino)-hexanoic acid hydroxyamide], the 50% inhibitory concentration (IC50) amounted to 267 ± 32.5 nM.
As for `CC(C)CNC(=O)CN(CCCCCC(=O)NO)CC(=O)NCC(C)C` [Compound 51, 6-[Bis-(isobutylcarbamoyl-methyl)-amino]-hexanoic acid hydroxyamide], the IC50 came to 288 ± 53 nM.
Same read-out and setting: the value for `O=C(CCCCCN(CC(=O)NCC1CCCCC1)CC(=O)NCC1CCCCC1)NO` [Compound 52, 6-{Bis-[(cyclohexylmethyl-carbamoyl)-methyl]-amino}-hexanoic acid hydroxyamide] was 311 ± 24.7 nM.
Still for that read-out and setting: in the case of `O=C(CCCCCN(CC(=O)N1CCC(Cc2ccccc2)CC1)CC(=O)N1CCC(Cc2ccccc2)CC1)NO` [Compound 53, 6-{Bis-[2-(4-benzyl-piperidin-1-yl)-2-oxo-ethyl]-amino}-hexanoic acid hydroxyamide] it was 873 ± 57.9 nM.
For the compound `O=C(CCCCN(CC(=O)NCCc1ccccc1)CC(=O)NCCc1ccccc1)NO` [Compound 54, 5-[Bis-(phenethylcarbamoyl-methyl)-amino]-pentanoic acid hydroxyamide], the IC50 was 886 ± 20.5 nM.

The assay is the same for the next values; noted with them: Table 3, compounds of formula IV; epitope-tagged human HDAC1 complex, substrate at Km; mean ± spread (N); read-out: HDAC Inhibition (IC50) nm.
With “8-[4-(4-Chloro-phenyl)-piperazin-1-yl]-8-oxo-octanoic acid hydroxyamide [Compound 78]”, the IC50 came to 36.5 ± 4.9 nM.
